Laboratory results from ChEMBL document CHEMBL3259549, “Unraveling the structure-activity relationship of tomatidine, a steroid alkaloid with unique antibiotic properties against persistent forms of Staphylococcus aureus” (2014).
Values after ≈ are worked out from the molar mass of the structure shown.

Columns and labels:
Staphylococcus aureus [1] = test: Antimicrobial activity against hemB-deficient Staphylococcus aureus Newbould after 48 hrs by broth microdilution method; format: functional
Staphylococcus aureus [2] = test: microbe, parasite or virus in culture; conditions: ATCC 29213, 48 h
Description: Antimicrobial activity against Staphylococcus aureus ATCC 29213 after 48 hrs by broth microdilution method

Staphylococcus aureus [3] = test: MIC fold reduction, ratio of gentamicin MIC for Staphylococcus aureus ATCC 29213 to gentamicin MIC for Staphylococcus aureus ATCC 29213 in presence of compound

**Q.** With C[C@@H]1CC[C@@]2(NC1)O[C@H]1C[C@H]3[C@@H]4CC[C@H]5C[C@@H](O)CC[C@]5(C)[C@H]4CC[C@]3(C)[C@H]1[C@@H]2C as the compound, how does the MIC (Staphylococcus aureus [1]) read?
**A.** > 8 µg/mL

**Q.** What about the MIC (Staphylococcus aureus [2]) of the same compound?
**A.** > 64 µg/mL

**Q.** What about the “gentamicin MIC fold reduction” value (Staphylococcus aureus [3]) of the same compound?
**A.** 1

**Q.** With CCCCNC(C)[C@H]1CC[C@H]2[C@@H]3CC[C@H]4C[C@@H](O)CC[C@]4(C)[C@H]3CC[C@]12C.Cl (some centres undefined) as the compound, how does the MIC (Staphylococcus aureus [1]) read?
**A.** 4 µg/mL

**Q.** And the MIC (Staphylococcus aureus [2])?
**A.** 64 µg/mL

**Q.** And the “gentamicin MIC fold reduction” value (Staphylococcus aureus [3])?
**A.** 8

**Q.** What does the source list for CC(NCCN)[C@H]1CC[C@H]2[C@@H]3CC[C@H]4C[C@@H](O)CC[C@]4(C)[C@H]3CC[C@]12C.Cl.Cl (some centres undefined)?
**A.** MIC (Staphylococcus aureus [1]): > 8 µg/mL; MIC (Staphylococcus aureus [2]): 32 µg/mL; gentamicin MIC fold reduction (Staphylococcus aureus [3]): 2

**Q.** For CC(NCCCCN)[C@H]1CC[C@H]2[C@@H]3CC[C@H]4C[C@@H](O)CC[C@]4(C)[C@H]3CC[C@]12C.Cl.Cl (some centres undefined), which MIC (Staphylococcus aureus [1]) is on record?
**A.** > 8 µg/mL

**Q.** And the MIC (Staphylococcus aureus [2])?
**A.** 32 µg/mL

**Q.** What about the “gentamicin MIC fold reduction” value (Staphylococcus aureus [3]) of the same compound?
**A.** 2

**Q.** For GENTAMICIN, which MIC (Staphylococcus aureus [1]) is on record?
**A.** 0.03 µg/mL

**Q.** With CC(N)[C@H]1CC[C@H]2[C@@H]3CC[C@H]4C[C@@H](O)CC[C@]4(C)[C@H]3CC[C@]12C.Cl (some centres undefined) as the compound, how does the MIC (Staphylococcus aureus [1]) read?
**A.** > 8 µg/mL

**Q.** And the MIC (Staphylococcus aureus [2])?
**A.** 64 µg/mL

**Q.** What about the “gentamicin MIC fold reduction” value (Staphylococcus aureus [3]) of the same compound?
**A.** 2

**Q.** With C[C@H]1CC[C@]2(NC1)O[C@H]1C[C@H]3[C@@H]4CC[C@H]5CC(NCCCCCCN)CC[C@]5(C)[C@H]4CC[C@]3(C)[C@H]1[C@@H]2C.Cl.Cl.Cl (some centres undefined) as the compound, how does the MIC (Staphylococcus aureus [1]) read?
**A.** 1 µg/mL

**Q.** And the MIC (Staphylococcus aureus [2])?
**A.** 32 µg/mL

**Q.** What about the “gentamicin MIC fold reduction” value (Staphylococcus aureus [3]) of the same compound?
**A.** 2

**Q.** Which MIC (Staphylococcus aureus [1]) does the source give for C[C@H]1CC[C@]2(NC1)O[C@H]1C[C@H]3[C@@H]4CC[C@H]5C[C@H](O)CC[C@]5(C)[C@H]4CC[C@]3(C)[C@H]1[C@@H]2C.Cl here?
**A.** 4 µg/mL

**Q.** What about the MIC (Staphylococcus aureus [2]) of the same compound?
**A.** > 64 µg/mL

**Q.** And the “gentamicin MIC fold reduction” value (Staphylococcus aureus [3])?
**A.** 4

**Q.** What does the source list for CC(=O)NC[C@@H](C)CCC1O[C@H]2C[C@H]3[C@@H]4CC[C@H]5C[C@@H](O)CC[C@]5(C)[C@H]4CC[C@]3(C)[C@H]2[C@@H]1C (some centres undefined)?
**A.** MIC (Staphylococcus aureus [1]): > 8 µg/mL; MIC (Staphylococcus aureus [2]): > 64 µg/mL; gentamicin MIC fold reduction (Staphylococcus aureus [3]): 1

**Q.** Which results are given for C[C@H]1CC[C@]2(NC1)O[C@H]1C[C@H]3[C@@H]4CC[C@H]5CC(=O)CC[C@]5(C)[C@H]4CC[C@]3(C)[C@H]1[C@@H]2C.Cl?
**A.** MIC (Staphylococcus aureus [1]): 0.25 µg/mL; MIC (Staphylococcus aureus [2]): > 64 µg/mL; gentamicin MIC fold reduction (Staphylococcus aureus [3]): 8

**Q.** Which MIC (Staphylococcus aureus [1]) does the source give for C=CCO[C@H]1CC[C@@]2(C)[C@@H](CC[C@@H]3[C@@H]2CC[C@]2(C)[C@@H]4[C@H](C[C@@H]32)O[C@@]2(CC[C@H](C)CN2)[C@H]4C)C1.Cl here?
**A.** 0.25 µg/mL

**Q.** And the MIC (Staphylococcus aureus [2])?
**A.** 16 µg/mL

**Q.** And the “gentamicin MIC fold reduction” value (Staphylococcus aureus [3])?
**A.** 8

**Q.** Which results are given for CC(NCCCN)[C@H]1CC[C@H]2[C@@H]3CC[C@H]4C[C@@H](O)CC[C@]4(C)[C@H]3CC[C@]12C.Cl.Cl (some centres undefined)?
**A.** MIC (Staphylococcus aureus [1]): > 8 µg/mL; MIC (Staphylococcus aureus [2]): 32 µg/mL; gentamicin MIC fold reduction (Staphylococcus aureus [3]): 2

**Q.** C[C@H]1CC[C@]2(NC1)O[C@H]1C[C@H]3[C@@H]4CC[C@H]5CC(N)CC[C@]5(C)[C@H]4CC[C@]3(C)[C@H]1[C@@H]2C.Cl.Cl (some centres undefined) was tested. Which MIC (Staphylococcus aureus [1]) did it give?
**A.** 1 µg/mL

**Q.** What about the MIC (Staphylococcus aureus [2]) of the same compound?
**A.** 32 µg/mL

**Q.** And the “gentamicin MIC fold reduction” value (Staphylococcus aureus [3])?
**A.** 8

**Q.** With C[C@H]1CC[C@]2(NC1)O[C@H]1C[C@H]3[C@@H]4CC[C@H]5C[C@@H](O)CC[C@]5(C)[C@H]4CC[C@]3(C)[C@H]1[C@@H]2C.Cl as the compound, how does the MIC (Staphylococcus aureus [1]) read?
**A.** 0.06 µg/mL

**Q.** What about the MIC (Staphylococcus aureus [2]) of the same compound?
**A.** > 64 µg/mL

**Q.** And the “gentamicin MIC fold reduction” value (Staphylococcus aureus [3])?
**A.** 8

**Q.** CC(=O)NC[C@@H](C)CCC1=C(C)[C@H]2[C@H](C[C@H]3[C@@H]4CC[C@H]5C[C@@H](O)CC[C@]5(C)[C@H]4CC[C@@]32C)O1 was tested. Which MIC (Staphylococcus aureus [1]) did it give?
**A.** > 8 µg/mL

**Q.** And the MIC (Staphylococcus aureus [2])?
**A.** > 64 µg/mL

**Q.** What about the “gentamicin MIC fold reduction” value (Staphylococcus aureus [3]) of the same compound?
**A.** 1

**Q.** With C[C@H]1CCC([C@@H](C)[C@H]2[C@@H](O)C[C@H]3[C@@H]4CC[C@H]5C[C@@H](O)CC[C@]5(C)[C@H]4CC[C@]23C)NC1.Cl (some centres undefined) as the compound, how does the MIC (Staphylococcus aureus [1]) read?
**A.** 4 µg/mL

**Q.** What about the MIC (Staphylococcus aureus [2]) of the same compound?
**A.** 32 µg/mL

**Q.** And the “gentamicin MIC fold reduction” value (Staphylococcus aureus [3])?
**A.** 4

**Q.** What does the source list for C[C@H]1CC[C@]2(NC1)O[C@H]1C[C@H]3[C@@H]4CC[C@H]5CC(NCCN)CC[C@]5(C)[C@H]4CC[C@]3(C)[C@H]1[C@@H]2C.Cl.Cl.Cl (some centres undefined)?
**A.** MIC (Staphylococcus aureus [1]): 0.5 µg/mL; MIC (Staphylococcus aureus [2]): 8 µg/mL; gentamicin MIC fold reduction (Staphylococcus aureus [3]): 4

**Q.** What does the source list for C[C@H]1CC[C@]2(NC1)O[C@H]1C[C@H]3[C@@H]4CC[C@H]5CC(NCCCCN)CC[C@]5(C)[C@H]4CC[C@]3(C)[C@H]1[C@@H]2C.Cl.Cl.Cl (some centres undefined)?
**A.** MIC (Staphylococcus aureus [1]): 0.5 µg/mL; MIC (Staphylococcus aureus [2]): 16 µg/mL; gentamicin MIC fold reduction (Staphylococcus aureus [3]): 4

**Q.** For C[C@]12CC[C@H](O)C[C@@H]1CC[C@@H]1[C@@H]2CC[C@]2(C)[C@@H](C(=O)CN3CCCCC3)CC[C@@H]12, which MIC (Staphylococcus aureus [1]) is on record?
**A.** > 8 µg/mL

**Q.** And the MIC (Staphylococcus aureus [2])?
**A.** > 64 µg/mL

**Q.** And the “gentamicin MIC fold reduction” value (Staphylococcus aureus [3])?
**A.** 2

**Q.** C[C@H]1CC[C@]2(NC1)O[C@H]1C[C@H]3[C@@H]4CC[C@H]5C[C@@H](O)CC[C@]5(C)[C@H]4CC[C@]3(C)[C@H]1[C@@H]2C [TOMATIDINE] was tested. Which MIC (Staphylococcus aureus [1]) did it give?
**A.** 0.12 µg/mL (≈ 0.289 µM)

**Q.** CC(=O)NC[C@@H](C)CCC(O)[C@@H](C)[C@H]1[C@@H](O)C[C@H]2[C@@H]3CC[C@H]4C[C@@H](O)CC[C@]4(C)[C@H]3CC[C@]12C (some centres undefined) was tested. Which MIC (Staphylococcus aureus [1]) did it give?
**A.** > 8 µg/mL

**Q.** And the MIC (Staphylococcus aureus [2])?
**A.** > 64 µg/mL

**Q.** And the “gentamicin MIC fold reduction” value (Staphylococcus aureus [3])?
**A.** 1

**Q.** With CC(C)CCNC(C)[C@H]1CC[C@H]2[C@@H]3CC[C@H]4C[C@@H](O)CC[C@]4(C)[C@H]3CC[C@]12C.Cl (some centres undefined) as the compound, how does the MIC (Staphylococcus aureus [1]) read?
**A.** > 8 µg/mL

**Q.** What about the MIC (Staphylococcus aureus [2]) of the same compound?
**A.** > 64 µg/mL

**Q.** And the “gentamicin MIC fold reduction” value (Staphylococcus aureus [3])?
**A.** 4

**Q.** Which results are given for CC(NCCCN(C)C)[C@H]1[C@@H](O)C[C@H]2[C@@H]3CC[C@H]4C[C@@H](O)CC[C@]4(C)[C@H]3CC[C@@]21C (some centres undefined)?
**A.** MIC (Staphylococcus aureus [1]): > 8 µg/mL; MIC (Staphylococcus aureus [2]): > 64 µg/mL; gentamicin MIC fold reduction (Staphylococcus aureus [3]): 2

**Q.** Which results are given for CCCCNC(C)[C@H]1[C@@H](O)C[C@H]2[C@@H]3CC[C@H]4C[C@@H](O)CC[C@]4(C)[C@H]3CC[C@@]21C.Cl (some centres undefined)?
**A.** MIC (Staphylococcus aureus [1]): > 8 µg/mL; MIC (Staphylococcus aureus [2]): > 64 µg/mL; gentamicin MIC fold reduction (Staphylococcus aureus [3]): 2

**Q.** How did the MIC (Staphylococcus aureus [1]) turn out when CN(C)CC(=O)[C@H]1CC[C@H]2[C@@H]3CC[C@H]4C[C@@H](O)CC[C@]4(C)[C@H]3CC[C@]12C was run?
**A.** > 8 µg/mL

**Q.** And the MIC (Staphylococcus aureus [2])?
**A.** > 64 µg/mL

**Q.** And the “gentamicin MIC fold reduction” value (Staphylococcus aureus [3])?
**A.** 2

**Q.** What does the source list for C[C@H]1CC[C@@]2(O[C@H]3C[C@H]4[C@@H]5CC[C@H]6C[C@@H](O)CC[C@]6(C)[C@H]5CC[C@]4(C)[C@H]3[C@@H]2C)N(C=O)C1?
**A.** MIC (Staphylococcus aureus [1]): > 8 µg/mL; MIC (Staphylococcus aureus [2]): > 64 µg/mL; gentamicin MIC fold reduction (Staphylococcus aureus [3]): 2
